Experimental data: ChEMBL document CHEMBL1201861, “Genomics of Drug Sensitity in Cancer screening data, Wellcome Trust Sanger Institute”

Key:
PF-382 = test: cells; type: functional, cell-based; settings: Homo sapiens
Description: SANGER: Inhibition of human PF-382 cell growth in a cell viability assay.

REH = test: cells; type: functional, cell-based; settings: Homo sapiens;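 also: growth inhibition of REH cells determined with a cell viability read-out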
Description: SANGER: Inhibition of human REH cell growth in a cell viability assay.

NCI-H2171 = test: cells; type: functional, cell-based; settings: Homo sapiens;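 also: growth inhibition of human NCI-H2171 cells, read out by a cell viability assay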
Description: SANGER: Inhibition of human NCI-H2171 cell growth in a cell viability assay.

NCI-H2081 = test: cells; type: functional, cell-based; settings: Homo sapiens;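 also: growth inhibition of human NCI-H2081 cells, read out with a cell viability assay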
Description: SANGER: Inhibition of human NCI-H2081 cell growth in a cell viability assay.

LB831-BLC = test: cells; type: functional, cell-based, Homo sapiens; settings: Homo sapiens, LB831-BLC;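 also: growth inhibition of LB831-BLC cells, read out with a cell viability assay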
Description: SANGER: Inhibition of human LB831-BLC cell growth in a cell viability assay.

YT = test: cells; type: functional, cell-based; settings: Homo sapiens
Description: SANGER: Inhibition of human YT cell growth in a cell viability assay.

KMS-12-PE = test: cells; type: functional, cell-based; settings: Homo sapiens;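 also: growth inhibition of human KMS-12-PE cells, measured with a cell viability assay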
Description: SANGER: Inhibition of human KMS-12-PE cell growth in a cell viability assay.

EM-2 = test: cells; type: functional, cell-based; settings: Homo sapiens;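 also: growth inhibition of EM-2 cells, read out with a cell viability assay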
Description: SANGER: Inhibition of human EM-2 cell growth in a cell viability assay.

GDM-1 = test: cells; type: functional, cell-based; settings: Homo sapiens;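 also: cell viability readout used to measure growth inhibition of human GDM-1 cells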
Description: SANGER: Inhibition of human GDM-1 cell growth in a cell viability assay.

NCI-H889 = test: cells; type: functional, cell-based; settings: Homo sapiens;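 also: cell growth inhibition of the cell line, read out with a viability assay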
Description: SANGER: Inhibition of human NCI-H889 cell growth in a cell viability assay.

NCI-H719 = test: cells; type: functional, cell-based; settings: Homo sapiens;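 also: growth inhibition of the cultured cell line, read out with a viability assay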
Description: SANGER: Inhibition of human NCI-H719 cell growth in a cell viability assay.

NCI-H1882 = test: cells; type: functional, cell-based; settings: Homo sapiens;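 also: growth inhibition of the cell line, determined with a viability assay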
Description: SANGER: Inhibition of human NCI-H1882 cell growth in a cell viability assay.

ST486 = test: SANGER: Inhibition of human ST486 cell growth in a cell viability assay.; type: functional, cell-based
BOKU = test: cells; type: functional, cell-based; settings: Homo sapiens;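 also: growth inhibition of the human BOKU cell line, read out by a cell viability assay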
Description: SANGER: Inhibition of human BOKU cell growth in a cell viability assay.

NALM-6 = test: cells; type: functional, cell-based; settings: Homo sapiens;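 also: growth inhibition of NALM-6 cells, read out with a cell viability assay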
Description: SANGER: Inhibition of human NALM-6 cell growth in a cell viability assay.

SK-MM-2 = test: cells; type: functional, cell-based; settings: Homo sapiens;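 also: growth inhibition of human SK-MM-2 cells, read out with a cell viability assay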
Description: SANGER: Inhibition of human SK-MM-2 cell growth in a cell viability assay.

EB-3 = test: cells; type: functional, cell-based; settings: Homo sapiens;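 also: human EB-3 cells, growth inhibition read out via a cell viability assay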
Description: SANGER: Inhibition of human EB-3 cell growth in a cell viability assay.

ES1 = test: cells; type: functional, cell-based, Homo sapiens; settings: Homo sapiens, ES1;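 also: growth inhibition of ES1 cells, read out with a cell viability assay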
Description: SANGER: Inhibition of human ES1 cell growth in a cell viability assay.

NCI-H187 = test: cells; type: functional, cell-based; settings: Homo sapiens;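 also: growth inhibition of NCI-H187 cells, read out as cell viability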
Description: SANGER: Inhibition of human NCI-H187 cell growth in a cell viability assay.

OPM-2 = test: cells; type: functional, cell-based; settings: Homo sapiens;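 also: growth of OPM-2 cells measured with a viability assay, IC50 for suppression of proliferation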
Description: SANGER: Inhibition of human OPM-2 cell growth in a cell viability assay.

EVSA-T = test: cells; type: functional, cell-based, Homo sapiens; settings: Homo sapiens, EVSA-T;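 also: growth inhibition of EVSA-T cells, read out with a cell viability assay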
Description: SANGER: Inhibition of human EVSA-T cell growth in a cell viability assay.

EW-22 = test: cells; type: functional, cell-based; settings: Homo sapiens;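 also: growth inhibition of the EW-22 cell line, measured with a cell viability readout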
Description: SANGER: Inhibition of human EW-22 cell growth in a cell viability assay.

HEL = test: cells; type: functional, cell-based, Homo sapiens; settings: Homo sapiens, HEL;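 also: growth inhibition of HEL cells, read out with a cell viability assay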
Description: SANGER: Inhibition of human HEL cell growth in a cell viability assay.

Calu-6 = test: cells; type: functional, cell-based, Homo sapiens; settings: Homo sapiens, Calu-6;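 also: growth of human Calu-6 cells, read out by a cell viability assay, IC50 marking inhibition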
Description: SANGER: Inhibition of human Calu-6 cell growth in a cell viability assay.

IMR-5 = test: cells; type: functional, cell-based; settings: Homo sapiens;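 also: growth inhibition of human IMR-5 cells, read out with a cell viability assay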
Description: SANGER: Inhibition of human IMR-5 cell growth in a cell viability assay.

BL-70 = test: SANGER: Inhibition of human BL-70 cell growth in a cell viability assay.; type: functional, cell-based
NB5 = test: cells; type: functional, cell-based, Homo sapiens; settings: Homo sapiens, NB5;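 also: growth inhibition of NB5 cells, read out as cell viability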
Description: SANGER: Inhibition of human NB5 cell growth in a cell viability assay.

NCI-H716 = test: cells; type: functional, cell-based; settings: Homo sapiens;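 also: growth inhibition of human NCI-H716 cells, measured by a cell viability assay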
Description: SANGER: Inhibition of human NCI-H716 cell growth in a cell viability assay.

CHP-126 = test: cells; type: functional, cell-based; settings: Homo sapiens
Description: SANGER: Inhibition of human CHP-126 cell growth in a cell viability assay.

DMS-153 = test: cells; type: functional, cell-based; settings: Homo sapiens
Description: SANGER: Inhibition of human DMS-153 cell growth in a cell viability assay.

SUP-T1 = test: cells; type: functional, cell-based; settings: Homo sapiens;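 also: growth inhibition of human SUP-T1 cells, read out as cell viability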
Description: SANGER: Inhibition of human SUP-T1 cell growth in a cell viability assay.

Raji = test: cells; type: functional, cell-based; settings: Homo sapiens;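 also: cell viability assay measuring inhibition of Raji cell growth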
Description: SANGER: Inhibition of human Raji cell growth in a cell viability assay.

NCI-H1694 = test: cells; type: functional, cell-based; settings: Homo sapiens;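 also: cell viability assay measuring inhibition of growth in human NCI-H1694 cells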
Description: SANGER: Inhibition of human NCI-H1694 cell growth in a cell viability assay.

LB996-RCC = test: cells; type: functional, cell-based; settings: Homo sapiens
Description: SANGER: Inhibition of human LB996-RCC cell growth in a cell viability assay.

HCC2157 = test: cells; type: functional, cell-based; settings: Homo sapiens;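 also: growth inhibition of the cancer cell line, read out as cell viability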
Description: SANGER: Inhibition of human HCC2157 cell growth in a cell viability assay.

EHEB = test: cells; type: functional, cell-based; settings: Homo sapiens;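 also: growth inhibition of human EHEB cells, read out with a cell viability assay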
Description: SANGER: Inhibition of human EHEB cell growth in a cell viability assay.

CCRF-CEM = test: cells; type: functional, cell-based; settings: Homo sapiens;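 also: inhibition of CCRF-CEM cell growth, measured by a cell viability assay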
Description: SANGER: Inhibition of human CCRF-CEM cell growth in a cell viability assay.

SF-539 = test: cells; type: functional, cell-based, Homo sapiens; settings: Homo sapiens, SF-539;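 also: Read-out is a cell viability assay, with IC50 reflecting inhibition of cell growth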
Description: SANGER: Inhibition of human SF539 cell growth in a cell viability assay.

LC-1F = test: cells; type: functional, cell-based; settings: Homo sapiens;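 also: growth inhibition of human LC-1F cells, read out with a cell viability assay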
Description: SANGER: Inhibition of human LC-1F cell growth in a cell viability assay.

SIMA = test: cells; type: functional, cell-based, Homo sapiens; settings: Homo sapiens, SIMA;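 also: growth inhibition of SIMA cells, measured with a cell viability readout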
Description: SANGER: Inhibition of human SIMA cell growth in a cell viability assay.

NB6 = test: cells; type: functional, cell-based, Homo sapiens; settings: Homo sapiens, NB6;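 also: growth inhibition of NB6 cells, read out by a cell viability assay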
Description: SANGER: Inhibition of human NB6 cell growth in a cell viability assay.

CPC-N = test: cells; type: functional, cell-based; settings: Homo sapiens;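 also: growth inhibition of CPC-N cells, with a cell viability assay as the readout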
Description: SANGER: Inhibition of human CPC-N cell growth in a cell viability assay.

J-RT3-T3-5 = test: cells; type: functional, cell-based; settings: Homo sapiens;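 also: cell viability assay measuring growth inhibition of human J-RT3-T3-5 cells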
Description: SANGER: Inhibition of human J-RT3-T3-5 cell growth in a cell viability assay.

MV4-11 = test: cells; type: functional, cell-based, MV-4-11; settings: Homo sapiens;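 also: cell viability readout measuring growth inhibition of human MV-4-11 cells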
Description: SANGER: Inhibition of human MV-4-11 cell growth in a cell viability assay.

Question: What does the source list for `CN1CCN(CCOc2cc(OC3CCOCC3)c3c(Nc4c(Cl)ccc5c4OCO5)ncnc3c2)CC1` [SARACATINIB]?
Answer: IC50 (PF-382): > 2000 nM; IC50 (REH): > 2000 nM; IC50 (NCI-H2171): > 2000 nM; IC50 (NCI-H2081): > 2000 nM; IC50 (LB831-BLC): > 2000 nM; IC50 (YT): > 2000 nM; IC50 (KMS-12-PE): > 2000 nM; IC50 (EM-2): 265 nM; IC50 (GDM-1): > 2000 nM; IC50 (NCI-H889): > 2000 nM; IC50 (NCI-H719): > 2000 nM; IC50 (NCI-H1882): > 2000 nM; IC50 (ST486): 1460 nM; IC50 (BOKU): > 2000 nM; IC50 (NALM-6): > 2000 nM; IC50 (SK-MM-2): > 2000 nM; IC50 (EB-3): > 2000 nM; IC50 (ES1): > 2000 nM; IC50 (NCI-H187): > 2000 nM; IC50 (OPM-2): > 2000 nM; IC50 (EVSA-T): > 2000 nM; IC50 (EW-22): > 2000 nM; IC50 (HEL): > 2000 nM; IC50 (Calu-6): > 2000 nM; IC50 (IMR-5): > 2000 nM; IC50 (BL-70): > 2000 nM; IC50 (NB5): > 2000 nM; IC50 (NCI-H716): > 2000 nM; IC50 (CHP-126): > 2000 nM; IC50 (DMS-153): > 2000 nM; IC50 (SUP-T1): > 2000 nM; IC50 (Raji): > 2000 nM; IC50 (NCI-H1694): > 2000 nM; IC50 (LB996-RCC): 442 nM; IC50 (HCC2157): > 2000 nM; IC50 (EHEB): > 2000 nM; IC50 (CCRF-CEM): > 2000 nM; IC50 (SF-539): > 2000 nM; IC50 (LC-1F): > 2000 nM; IC50 (SIMA): > 2000 nM; IC50 (NB6): > 2000 nM; IC50 (CPC-N): > 2000 nM; IC50 (J-RT3-T3-5): > 2000 nM; IC50 (MV4-11): > 2000 nM

Question: With `CO[C@H]1C[C@@H]2CC[C@@H](C)[C@@](O)(O2)C(=O)C(=O)N2CCCC[C@H]2C(=O)O[C@H]([C@H](C)C[C@@H]2CC[C@@H](O)[C@H](OC)C2)CC(=O)[C@H](C)/C=C(\C)[C@@H](O)[C@@H](OC)C(=O)[C@H](C)C[C@H](C)/C=C/C=C/C=C/1C` [SIROLIMUS] as the molecule, how does the IC50 (PF-382) read?
Answer: Its IC50 is 96.8 nM.

Question: And the IC50 (REH)?
Answer: The IC50 was > 100 nM.

Question: What about the IC50 (NCI-H2171) of the same molecule?
Answer: Its IC50 is > 100 nM.

Question: And the IC50 (NCI-H2081)?
Answer: Its IC50 is > 100 nM.

Question: What about the IC50 (LB831-BLC) of the same molecule?
Answer: The IC50 was > 100 nM.

Question: And the IC50 (YT)?
Answer: The IC50 was > 100 nM.

Question: What about the IC50 (KMS-12-PE) of the same molecule?
Answer: Its IC50 is > 100 nM.

Question: And the IC50 (EM-2)?
Answer: Its IC50 is 38.5 nM.

Question: What about the IC50 (GDM-1) of the same molecule?
Answer: The IC50 was > 100 nM.

Question: And the IC50 (NCI-H889)?
Answer: The IC50 was > 100 nM.

Question: And the IC50 (NCI-H719)?
Answer: The IC50 was > 100 nM.

Question: What about the IC50 (NCI-H1882) of the same molecule?
Answer: The IC50 was > 100 nM.

Question: What about the IC50 (ST486) of the same molecule?
Answer: Its IC50 is > 100 nM.

Question: What about the IC50 (BOKU) of the same molecule?
Answer: Its IC50 is > 100 nM.

Question: What about the IC50 (NALM-6) of the same molecule?
Answer: Its IC50 is > 100 nM.

Question: What about the IC50 (SK-MM-2) of the same molecule?
Answer: Its IC50 is > 100 nM.

Question: And the IC50 (EB-3)?
Answer: Its IC50 is 52.7 nM.

Question: What about the IC50 (ES1) of the same molecule?
Answer: The IC50 was > 100 nM.

Question: What about the IC50 (NCI-H187) of the same molecule?
Answer: The IC50 was > 100 nM.

Question: What about the IC50 (OPM-2) of the same molecule?
Answer: Its IC50 is 4.15 nM.

Question: What about the IC50 (EVSA-T) of the same molecule?
Answer: Its IC50 is > 100 nM.

Question: And the IC50 (EW-22)?
Answer: Its IC50 is > 100 nM.

Question: And the IC50 (HEL)?
Answer: The IC50 was 49.8 nM.

Question: And the IC50 (Calu-6)?
Answer: The IC50 was > 100 nM.

Question: What about the IC50 (IMR-5) of the same molecule?
Answer: Its IC50 is > 100 nM.

Question: And the IC50 (BL-70)?
Answer: Its IC50 is 28.4 nM.

Question: What about the IC50 (NB5) of the same molecule?
Answer: Its IC50 is > 100 nM.

Question: And the IC50 (NCI-H716)?
Answer: The IC50 was > 100 nM.

Question: And the IC50 (CHP-126)?
Answer: Its IC50 is > 100 nM.

Question: What about the IC50 (DMS-153) of the same molecule?
Answer: The IC50 was > 100 nM.

Question: And the IC50 (SUP-T1)?
Answer: The IC50 was > 100 nM.

Question: What about the IC50 (Raji) of the same molecule?
Answer: Its IC50 is 89.7 nM.

Question: What about the IC50 (NCI-H1694) of the same molecule?
Answer: The IC50 was > 100 nM.

Question: What about the IC50 (LB996-RCC) of the same molecule?
Answer: Its IC50 is 93.4 nM.

Question: And the IC50 (HCC2157)?
Answer: Its IC50 is > 100 nM.

Question: And the IC50 (EHEB)?
Answer: The IC50 was > 100 nM.

Question: And the IC50 (CCRF-CEM)?
Answer: Its IC50 is 4.94 nM.

Question: And the IC50 (SF-539)?
Answer: Its IC50 is < 0.391 nM.

Question: What about the IC50 (LC-1F) of the same molecule?
Answer: The IC50 was > 100 nM.

Question: What about the IC50 (SIMA) of the same molecule?
Answer: The IC50 was > 100 nM.

Question: What about the IC50 (NB6) of the same molecule?
Answer: Its IC50 is > 100 nM.

Question: What about the IC50 (CPC-N) of the same molecule?
Answer: The IC50 was > 100 nM.

Question: And the IC50 (J-RT3-T3-5)?
Answer: The IC50 was 6.46 nM.

Question: And the IC50 (MV4-11)?
Answer: Its IC50 is 83.7 nM.
